Active and inactive are the calls of the source. No stated cut-off is given here; in the data, active means AC50 below about 11 µM.
These molecules were tested on B cell line, TNFa signaling counterscreen reporter (assay: TNFa pathway inhibition counter-screen, B-lineage cells – dose response (AID 1259334);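 further: cells stimulated with TNFa after compound preincubation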).
With `C=C1CC(Cn2cc(Br)c(=O)[nH]c2=O)(c2ccc(-c3ccccc3)cc2)OC1=O` (stereo not drawn) the AC50 was 1.07 µM.
`Fc1ccccc1CNCCC(Cc1ccccc1)c1ccc2c(c1)OCO2` (stereo not drawn) was tested, and the AC50 was 3.4 µM.
`Cc1cnc(NC(=O)c2ccc(OCC3CCCO3)cc2)s1` (stereo not drawn) gave an AC50 of 4.02 µM.
With `C[C@@H]1CN([C@H](C)CO)C(=O)c2c(c3ccccc3n2C)-c2ccccc2CO[C@H]1CN(C)C(=O)c1cc(Cl)cc(Cl)c1` the AC50 was > 20 µM (inactive).
In the case of `Cc1ccnc(NC(=O)c2ccc(OCC3CCCO3)cc2)c1` (stereo not drawn), the AC50 is reported as 5.1 µM.
For `O=C(Cn1ncc(Cl)c(Cl)c1=O)NC1CCCCC1`, the AC50 was 2.42 µM.
In the case of `COc1ccc(C#Cc2ccc([C@@H]3[C@H](CO)N4CCCCN(C(=O)Nc5cccc(F)c5)C[C@@H]34)cc2)cc1`, the AC50 is reported as 4.57 µM.
`O=C(Nc1ccccc1F)N1C[C@@H]2N[C@H](C1)C2c1ccc(/C=C/c2ccccc2)cc1` (stereo partly drawn) gave an AC50 of 1.39 µM.
With `Cc1ccc(OC(=O)N(C)C[C@@H]2OCc3ccccc3-c3c(n(C)c4ccccc34)C(=O)N([C@@H](C)CO)C[C@H]2C)cc1` the AC50 was 7.67 µM.
Work on `c1ccc2nc(-c3nc4ccccc4o3)ccc2c1` yielded an AC50 of 6.02 µM.
`CC(C)(C)[C@H](N)C(=O)N[C@H]1CCC2C3CC=C4C[C@@H](O)CC[C@]4(C)C3CC[C@@]21C` (stereo partly drawn) showed an AC50 of 4.1 µM.
Molecule `N#C[C@@H]1[C@H](c2ccc(C#Cc3ccccc3F)cc2)[C@@H](CO)N1C(=O)C1CC1` has an AC50 of 3.39 µM.
Work on `O=C1C=CC(=O)c2c(O)c(N3CCN(CCOCCO)CC3)c(Br)c(O)c21` yielded an AC50 of 1.33 µM.
Molecule `CCS(=O)(=O)N1Cc2ccccc2CC1C(=O)Nc1nc2ccccc2s1` (stereo not drawn) has an AC50 of 6.66 µM.
With `COc1ccc(C[C@H]2NC[C@H](O)[C@H]2OC(C)=O)cc1` the AC50 was 0.0144 µM.
`COC(=O)C[C@](O)(CCCC(C)(C)O)C(=O)O[C@@H]1C(OC)=C[C@]23CCCN2CCc2cc4c(cc2[C@H]13)OCO4` was tested, and the AC50 was under 0.0046 µM.
Molecule `CCS(=O)(=O)N1[C@H](CO)[C@@H](c2ccc(C#Cc3ccccc3F)cc2)[C@@H]1C#N` has an AC50 of 7.11 µM.
`CC(C)[C@H](CO)Nc1nc(Nc2cccc(Cl)c2)c2ncn(C(C)C)c2n1` showed an AC50 of 3.58 µM.
With `CC(C)(C)CC(C)(C)c1ccc(OCCOCC[N+](C)(C)Cc2ccccc2)cc1` the AC50 was 1.75 µM.
With `COc1ccc2c3c(n(C)c2c1)[C@@H](CO)N(C(=O)Nc1ccc(F)cc1)CC31CN(Cc2ccccc2F)C1` the AC50 was > 20 µM (inactive).
Work on `COC(=O)C1=C(C(=O)OC)C(C(=O)OC)C(C(=O)OC)C(C(=O)OC)(C(=O)OC)C(C(=O)OC)=C1C(=O)OC` (stereo not drawn) yielded an AC50 of 4.62 µM.
In the case of `C[C@@H]1CN([C@@H](C)CO)C(=O)c2ccccc2-c2ccccc2CO[C@@H]1CN(C)C(=O)c1cc(Cl)cc(Cl)c1`, the AC50 is reported as > 20 µM (inactive).
For `COc1ccc(S(=O)(=O)Nc2ccc3c(c2)C(=O)N([C@H](C)CO)C[C@@H](C)[C@@H](CN(C)Cc2ccc(C(F)(F)F)cc2)OCCCC[C@H](C)O3)cc1`, the AC50 was > 20 µM (inactive).
In the case of `CC(C)Cc1ccc(C(C)CC2=CCC(CN(C)C)C2=O)cc1` (stereo not drawn), the AC50 is reported as 2.41 µM.
For `COC(=O)C12OCC34C(CC5C(C)=C(O)C(=O)CC5(C)C3C(O)C1O)OC(=O)C(OC(=O)C=C(C)C)C24` (stereo not drawn), the AC50 was 0.671 µM.
With `CN(C)c1ccc(C(=C2C=CC(=[N+](C)C)C=C2)c2ccc(N(C)C)cc2)cc1` the AC50 was 0.099 µM.
For `Oc1c(Cl)cc(Cl)c(Cl)c1Cc1c(O)c(Cl)cc(Cl)c1Cl`, the AC50 was 2.69 µM.
`CC(C)(C)NCC(=Cc1ccccc1)C(=O)c1ccccc1` gave an AC50 of 2.84 µM.
Molecule `C[C@H]1CN([C@@H](C)CO)C(=O)c2ccccc2-c2ccccc2CO[C@@H]1CN(C)Cc1ccccc1C(F)(F)F` has an AC50 of 7.26 µM.
`CSC1SCC2C(=O)N(C)C(C(C)C)C(=O)OCC(NC(=O)c3cnc4ccccc4n3)C(=O)NC(C)C(=O)N(C)C1C(=O)N(C)C(C(C)C)C(=O)OCC(NC(=O)c1cnc3ccccc3n1)C(=O)NC(C)C(=O)N2C` (stereo not drawn) gave an AC50 of under 0.0005 µM.
`C[C@@H]1CN([C@@H](C)CO)C(=O)c2ccccc2-c2ccccc2CO[C@H]1CN(C)Cc1ccccc1C(F)(F)F` was tested, and the AC50 was 7.43 µM.
With `OC1CC2CCC(C1)N2CCCN1c2ccccc2Sc2ccc(Cl)cc21` (stereo not drawn) the AC50 was 9.1 µM.
`CCCNC(=O)N1[C@@H](C#N)[C@H](c2ccc(-c3cccc(OC)c3)cc2)[C@@H]1CO` was tested, and the AC50 was > 20 µM (inactive).
Molecule `NC(c1csc(NC(=O)Nc2cccc(Cl)c2)n1)c1ccccc1Cl` (stereo not drawn) has an AC50 of 7.41 µM.
With `CC1(C)C(=O)C=C[C@@]2(C)C1C=C[C@]1(C)C2CC[C@@]2(C)[C@H](c3ccoc3)OC(=O)[C@H]3O[C@]321` (stereo partly drawn) the AC50 was 4.98 µM.
With `c1ccc(-c2nnc(-c3ccccn3)nn2)nc1` the AC50 was 11.4 µM.
Work on `CC1CC(C)C(=O)C(C(CC2CC(=O)NC(=O)C2)OC(=O)CC(=O)c2ccccc2)C1` (stereo not drawn) yielded an AC50 of 2.17 µM.
`CCC(C)[C@H]1O[C@]2(CC[C@@H]1C)C[C@@H]1C[C@@H](C/C=C(\C)[C@@H](OC3C[C@H](OC)C(O[C@H]4C[C@H](OC)[C@@H](O)[C@H](C)O4)[C@H](C)O3)[C@@H](C)/C=C/C=C3\CO[C@@H]4[C@H](O)C(C)=C[C@@H](C(=O)O1)[C@]34O)O2` (stereo partly drawn) was tested, and the AC50 was > 20 µM (inactive).
Molecule `CC1CC(C)CC(C)C(O)C(C#N)=CC=CCC(C2CCCC2C(=O)O)OC(=O)CC(O)C(C)C1` (stereo not drawn) has an AC50 of under 0.0005 µM.
In the case of `Cc1cc(C)cc(N2C(=O)CC(Sc3nnnn3-c3ccccc3)C2=O)c1` (stereo not drawn), the AC50 is reported as 0.728 µM.
In the case of `C[C@@H]1CCCCO[C@H](CN(C)CC2CCCCC2)[C@H](C)CN([C@@H](C)CO)C(=O)c2cc(NC(=O)Nc3ccc(C(F)(F)F)cc3)ccc2O1`, the AC50 is reported as > 20 µM (inactive).
For `NC(=O)c1c(Br)n(C2OC(CO)C(O)C2O)c2ncnc(N)c12` (stereo not drawn), the AC50 was 1.5 µM.
Molecule `COCC(=O)N1[C@H](C#N)[C@H](c2ccc(C#Cc3ccccc3F)cc2)[C@H]1CO` has an AC50 of 2.23 µM.

Source: PubChem BioAssay AID1259334 (Broad Institute, 2017)
